Laboratory results taken from US20190127359A1, “Compounds & Methods for the Enhanced Degradation of Targeted Proteins & Other Polypeptides by an E3 Ubiquitin Ligase” (YALE UNIVERSITY, priority 2012, published 2019).
Like-named read-outs stand apart in the source and are kept apart here.

Target: VHL (Homo sapiens, UniProt P40337)
Experiment: Fluorescence polarization competition assay (HIF-1α peptide FP displacement)

Structure (SMILES)	IC50 (IC50 (μM) 10% DMSO, 10% DMSO) [µM]	IC50 (IC50 (μM) 1% DMSO, 1% DMSO) [µM]	also measured
Cc1cc(CC(=O)N2C[C@H](O)C[C@H]2C(=O)NCc2cccs2)on1 [VL016]	~730		
O=C(NCc1ccc(Cl)cc1)[C@@H]1C[C@@H](O)CN1C(=O)c1ccnc(Cl)c1 [VL099]	39.6		
CS(=O)(=O)c1ccc(CC(=O)N2C[C@H](O)C[C@H]2C(=O)NCc2ccc(Cl)cc2)cc1 [VL058]	> 1000		
Cc1cc(CC(=O)N2C[C@H](O)C[C@H]2C(=O)NCc2ccc(N(C)C)cc2)on1 [VL018]	280		
COc1cc(/C=C/C(=O)N2C[C@H](O)C[C@H]2C(=O)NCc2ccc(Cl)cc2)cc(OC)c1O [VL057]	> 1000		
Cc1cc(CC(=O)N2C[C@H](O)C[C@H]2C(=O)NCc2c[nH]c3ccccc23)on1 [VL109]	349		
O=C(NCc1ccc(Cl)cc1)[C@@H]1C[C@@H](O)CN1S(=O)(=O)c1cccc2cccnc12 [VL130]	> 1000	> 1000	
O=C(NCc1ccc(Cl)cc1)[C@@H]1C[C@@H](O)CN1C(=O)c1cccc(Cl)c1 [VL054]	140		
O=C(NCCc1ccc(O)cc1)[C@@H]1C[C@@H](O)CN1C(=O)Cc1nnn[nH]1 [VL005]	> 1000		
COc1cccc(CNC(=O)[C@@H]2C[C@@H](O)CN2C(=O)Cc2cc(C)no2)c1 [VL024]	511		
Cc1cc(CC(=O)N2C[C@H](O)C[C@H]2C(=O)NCc2ccc(-c3ccccc3)cc2)on1 [VL014]	4.7		
Cn1cc(CC(=O)N2C[C@H](O)C[C@H]2C(=O)NCc2ccc(Cl)cc2)cn1 [VL157]	372	360	
Cc1cc(CC(=O)N2C[C@H](O)C[C@H]2C(=O)NCc2ccc(C)o2)on1 [VL044]	286		
Cc1cc(CC(=O)N2C[C@H](O)C[C@H]2C(=O)NCc2ccc(-c3ncon3)cc2)on1 [VL131]	8	19	
NS(=O)(=O)c1ccc(C(=O)N2C[C@H](O)C[C@H]2C(=O)NCc2ccc(Cl)cc2)cc1 [VL082]	29		
Cc1cc(CC(=O)N2C[C@H](O)C[C@H]2C(=O)NCc2ccc(C#N)cc2)on1 [VL088]	18.2		
Cc1c(C(=O)N2C[C@H](O)C[C@H]2C(=O)NCc2ccc(Cl)cc2)cccc1[N+](=O)[O-] [VL066]	72.4		
Cc1cc(CCN2C[C@H](O)C[C@H]2C(=O)NCc2ccc(-c3ccccc3)cc2)on1 [VL145]	> 1000	> 1000	
Cc1cc(CC(=O)N2C[C@H](O)C[C@H]2C(=O)NCc2ccc(-c3cccnc3)cc2)on1 [VL159]	66.9	54	

Structure (SMILES)	IC50 (IC50 (μM) 10% DMSO, 10% DMSO) [µM]	IC50 (IC50 (μM) 1% DMSO, 1% DMSO) [µM]	also measured
O=C(NCc1ccc(Cl)cc1)[C@@H]1C[C@@H](O)CN1C(=O)Cc1ccncc1 [VL062]	> 1000		
N#Cc1cc(S(=O)(=O)N2C[C@H](O)C[C@H]2C(=O)NCc2ccc(Cl)cc2)ccc1F [VL063]	> 1000		
Cc1cc(CC(=O)N2C[C@H](O)C[C@H]2C(=O)NCc2ccc(Cl)cc2)on1 [VL021]	36		
COc1cccc(C(=O)N2C[C@H](O)C[C@H]2C(=O)NCc2ccc(Cl)cc2)c1 [VL079]	26.3		
Cc1cc(CC(=O)N2C[C@H](O)C[C@H]2C(=O)NCc2ccc(-c3cn[nH]c3)cc2)on1 [VL139]	24.7	44	
Cc1cc(CC(=O)N2C[C@H](O)C[C@H]2C(=O)NCc2ccc(Cl)c(C(F)(F)F)c2)on1 [VL023]	589		
COc1ccc(C(=O)N2C[C@H](O)C[C@H]2C(=O)NCc2ccc(Cl)cc2)cc1OC [VL069]	23.8		
CS(=O)(=O)N1C[C@H](O)C[C@H]1C(=O)NCc1cccc(Cl)c1 [VL007]			IC50 (μM) 10% DMSO (10% DMSO): Inactive
Cc1cc(CC(=O)N2C[C@H](O)C[C@H]2C(=O)N[C@H](C)c2ccccc2)on1 [VL033]	> 1000		
Cc1cc(CC(=O)N2C[C@H](O)C[C@H]2C(=O)NCc2ccc(-c3c[nH]nn3)cc2)on1 [VL140]	10.3	17	
Cc1cc(CC(=O)N2C[C@H](O)C[C@H]2C(=O)NCc2cccc3ccccc23)on1 [VL086]	168		
Cc1ccc(S(=O)(=O)N2C[C@H](O)C[C@H]2C(=O)NCc2cccc(Cl)c2)cc1 [VL008]	> 1000		
O=C(NCc1ccc(Cl)cc1)[C@@H]1C[C@@H](O)CN1C(=O)c1cccc(O)c1 [VL080]	17		
O=C(NCc1ccc(Cl)cc1)[C@@H]1C[C@@H](O)CN1C(=O)c1cccc(F)c1 [VL075]	35.5		
O=C(NCc1ccc(Cl)cc1)[C@@H]1C[C@@H](O)CN1C(=O)Cc1ccco1 [VL052]	> 1000		
Cc1cc(CC(=O)N2C[C@H](O)C[C@H]2C(=O)NCc2ccc(C(=O)CC(C)C)cc2)on1 [VL090]	45.2		
Cc1cc(CC(=O)N2C[C@H](O)C[C@H]2C(=O)NCc2ccccc2)on1 [VL034]			IC50 (read-out: IC50 (μM) 1% DMSO, 1% DMSO): 130 µM
O=C(NCc1ccc(Cl)cc1)[C@@H]1C[C@@H](O)CN1C(=O)c1ccccc1Cl [VL073]	39	46	
O=C(NCc1ccc(Cl)cc1)[C@@H]1C[C@@H](O)CN1C(=O)c1ccc2[nH]ncc2c1 [VL126]	88.1	82	

Structure (SMILES)	IC50 (IC50 (μM) 10% DMSO, 10% DMSO) [µM]	IC50 (IC50 (μM) 1% DMSO, 1% DMSO) [µM]	also measured
O=C(NCc1ccc(Cl)cc1)[C@@H]1C[C@@H](O)CN1C(=O)Cn1ccnc1 [VL156]	> 1000	> 1000	
Cc1cc(CC(=O)N2C[C@H](O)C[C@H]2C(=O)NCc2cccc(-c3cc[nH]c3)c2)on1 [VL134]	48.1	54	
Cc1cc(CC(=O)N2C[C@H](O)C[C@H]2C(=O)N2CCc3ccccc3C2)on1 [VL039]	> 1000		
O=C(NCc1ccc(Cl)cc1)[C@@H]1C[C@@H](O)CN1C(=O)c1cccc2cccnc12 [VL129]	760	493	
Cc1cc(CC(=O)N2C[C@H](O)C[C@H]2C(=O)NCc2ccccn2)on1 [VL019]	451		
Cc1cc(CC(=O)N2C[C@H](O)C[C@H]2C(=O)NCc2ccc(C(=O)OCC3CC3)cc2)on1 [VL091]	23		
COCc1cn(CC(=O)N2C[C@H](O)C[C@H]2C(=O)NCc2ccc(Cl)cc2)nn1 [VL141]	192	220	
O=C(NCc1ccc(Cl)cc1)[C@@H]1C[C@@H](O)CN1C(=O)c1cccc2cnccc12 [VL128]	57.9	224	
Cc1cc(CC(=O)N2C[C@H](O)C[C@H]2C(=O)OCc2ccc(-c3ccccc3)cc2)on1 [VL142]	780	> 1000	
CS(=O)(=O)N1C[C@H](O)C[C@H]1C(=O)NCCc1ccc(O)cc1 [VL006]			IC50 (μM) 10% DMSO (10% DMSO): Inactive
O=C(NCc1cccc(Cl)c1)[C@@H]1C[C@@H](O)CN1S(=O)(=O)c1cccc([N+](=O)[O-])c1 [VL013]	240		
Cc1cc(CC(=O)N2C[C@H](O)C[C@H]2C(=O)NCc2ccc(-c3ccc(F)nc3)cc2)on1 [VL151]	11	33	
O=C(NCc1ccc(Cl)cc1)[C@@H]1C[C@@H](O)CN1C(=O)c1ccc2cn[nH]c2c1 [VL127]	47.7	73	
Cc1cc(CC(=O)N2C[C@H](O)C[C@H]2C(=O)OCc2ccc(Cl)cc2)on1 [VL144]	> 1000	> 1000	
COC(=O)Cc1cn(-c2ccccc2C(=O)N2C[C@H](O)C[C@H]2C(=O)NCc2ccc(Cl)cc2)nn1 [VL153]	978		
Cc1cc(CC(=O)N2C[C@H](O)C[C@H]2C(=O)NCc2cccc(C(F)(F)F)c2)on1 [VL022]	~870		
O=C(NCc1ccc(Cl)cc1)[C@@H]1C[C@@H](O)CN1C(=O)c1ccccc1 [VL064]	110		
Cc1cc(CC(=O)N2C[C@H](O)C[C@H]2C(=O)NCc2ccc(-c3cscn3)cc2)on1 [VL154]	118	77	
